Test results: patent US20240252456A1, “ORAL COMPOSITION, SKIN COSMETIC AND HAIR COSMETIC” (MARUZEN PHARMACEUTICALS CO., LTD., priority 2021, published 2024)

Experiments:
[1] = test system: Normal human dermal fibroblasts (NB1RGB); assay: Type I collagen production promotive action test; format: cell-based; conditions: 3 days, A/B×100 vs no sample
Procedure: Normal human dermal fibroblasts (NB1RGB) were cultured using Dulbecco's modified Eagle's medium (DMEM) containing 10% FBS, and then the cells were collected by a trypsin treatment. The collected cells were diluted with DMEM containing 0.25% FBS to a cell density of 1.6×10^5 cells/mL, then seeded with 100 μL per well in a 96-well microplate, and cultured overnight.
After the culturing was completed, 100 μL of the test sample (Sample 1, see Table 6 below for final concentration) dissolved in DMEM containing 0.25% FBS was added to each well, and culturing was performed for 3 days. As a control, culturing was performed in the same manner using DMEM containing 0.25% FBS to which no sample was added. After culturing, the amount of type I collagen in the medium of each well was measured by ELISA method. From the measurement results, the type I collagen production promotion rate (%) was calculated using the following equation.
Type I collagen production promotion rate (%)=A/B×100
Terms in the equation represent the following respective ones. • A: Type I collagen amount with test sample addition • B: Type I collagen amount without sample addition

[2] = test system: Normal human neonatal epidermal keratinocytes (NHEK); assay: Epidermal keratinocyte proliferation promotive action test (MTT); format: cell-based; conditions: 3 days, A/B×100 vs no sample
Procedure: Normal human neonatal epidermal keratinocytes (NHEK) were cultured using normal human epidermal keratinocyte growth medium (KGM), and then the cells were collected by a trypsin treatment. The collected cells were diluted with KGM to a cell density of 3.0×10^4 cells/mL, then seeded with 100 μL per well on a collagen-coated 96-well plate, and cultured overnight. After the culturing was completed, 100 μL of the test sample (Sample 1, see Table 12 below for the final concentration) dissolved in KGM was added to each well, and culturing was performed for 3 days. As a control, culturing was performed in the same manner using KGM to which no sample was added.
The epidermal keratinocyte proliferation promotive action was measured using the MTT assay method. After culturing for 3 days, the medium was removed, and 100 μL of MTT dissolved at a final concentration of 0.4 mg/mL in PBS(−) buffer solution was added to each well. […] After extraction, the absorbance at a wavelength of 570 nm was measured. At the same time, the absorbance at a wavelength of 650 nm was measured as turbidity, and the difference between the two was determined as the production amount of blue formazan. From the obtained results, the epidermal keratinocyte proliferation promotion rate (%) was calculated using the following equation. […]

[3] = test system: SPT mRNA; assay: Serine palmitoyltransferase (SPT) mRNA expression promotive action test; format: cell-based, human; conditions: NHEK, 24 hours, corrected with GAPDH
Procedure: Normal human neonatal epidermal keratinocytes (NHEK) were precultured using normal human epidermal keratinocyte growth medium (KGM), and the cells were collected by a trypsin treatment. The collected cells were diluted with KGM to a cell density of 15×10^4 cells/mL, then seeded with 2 mL portions in a 6-well plate (30×10^4 cells/well), and cultured overnight under conditions of 37° C. and 5% CO2. After culturing, the medium was replaced with normal human epidermal keratinocyte basal medium (KBM, the above KGM without addition of growth additives (hEGF, BPE, insulin, antibacterial agents, hydrocortisone)), and culturing was further performed for 24 hours.
After culturing for 24 hours, the medium was removed, and 2 mL of the test sample (Sample 1, see Table 16 below for final concentration) dissolved in KBM was added to each well, and culturing was performed under conditions of 37° C. and 5% CO2 for 24 hours. As a control, culturing was performed in the same manner using KBM to which no sample was added. After culturing, the medium was removed, total RNA was extracted using ISOGEN II (available from NIPPON GENE CO., LTD.), each RNA amount was measured using a spectrophotometer, and the total RNA was prepared so as to be 150 ng/μL.
For SPT and GAPDH as an internal standard, the expression levels of mRNA were measured using the above total RNA as a template. […]

[4] = test system: tyrosinase; assay: Tyrosinase activity inhibitory action test; format: biochemical
Procedure: In a 48-well plate, 0.2 mL of McIlvaine buffer solution (pH 6.8), 0.06 mL of 0.3 mg/mL tyrosine solution, and 0.18 mL of the test sample (Sample 3, see Table 4 below for final concentration) dissolved in 25% DMSO solution were added, and they were statically placed at 37° C. for 10 minutes. To this, 0.02 mL of 1000 units/mL tyrosinase solution was added, followed by reaction at 37° C. for 15 minutes. After the reaction was completed, the absorbance at a wavelength of 475 nm was measured. As a blank, the same operation and absorbance measurement were performed in the case in which no enzyme solution was added. Furthermore, as a control, the same measurement was performed in the case in which 25% DMSO solution was added without adding the sample solution. From the obtained measurement results, the tyrosinase activity inhibition rate (%) was calculated using the following equation. [formula] Terms in the equation represent the following respective ones. • A: Absorbance at wavelength 475 nm with test sample addition and enzyme addition • B: Absorbance at wavelength 475 nm with test sample addition and without enzyme addition • C: Absorbance at wavelength 475 nm without sample addition and with enzyme addition • D: Absorbance at wavelength 475 nm without sample addition and without enzyme addition

SMILES	Type I collagen production promotion rate ([1]; 15.6 μmol/L) [%]	Type I collagen production promotion rate ([1]; 62.5 μmol/L) [%]	Epidermal keratinocyte proliferation promotion rate ([2]; 25 μmol/L) [%]	Epidermal keratinocyte proliferation promotion rate ([2]; 100 μmol/L) [%]	SPT mRNA expression promotion rate ([3]; 25 μmol/L) [%]	SPT mRNA expression promotion rate ([3]; 100 μmol/L) [%]	Tyrosinase activity inhibition rate ([4]; 125 μmol/L) [%]	Tyrosinase activity inhibition rate ([4]; 250 μmol/L) [%]	Tyrosinase activity inhibition rate ([4]; 500 μmol/L) [%]	Tyrosinase activity inhibition rate ([4]; 1000 μmol/L) [%]
O=C(O)CCc1ccc(O)c(O)c1 [Sample 1, 3,4-Dihydroxyhydrocinnamic acid]	107.4	112.8	138.3	152.1	114.6	149.9	–	–	–	–
O=C(O)CCc1ccccc1 [Sample 3, 3-phenylpropionic acid]	–	–	–	–	–	–	4.4	9.6	15.2	22.8
